This note sets out measurements from US20110092476A1, “Bicycloheteroaryl compounds as P2X7 modulators and uses thereof” (Renovis, Inc., priority 2006, published 2011).

This assay concerns the target T1, P2X7 receptor (Homo sapiens, UniProt Q99572).
T1 construct: host or cells: THP-1 cells differentiated with LPS and IFN-γ
T1 sequence (Q99572 1-595): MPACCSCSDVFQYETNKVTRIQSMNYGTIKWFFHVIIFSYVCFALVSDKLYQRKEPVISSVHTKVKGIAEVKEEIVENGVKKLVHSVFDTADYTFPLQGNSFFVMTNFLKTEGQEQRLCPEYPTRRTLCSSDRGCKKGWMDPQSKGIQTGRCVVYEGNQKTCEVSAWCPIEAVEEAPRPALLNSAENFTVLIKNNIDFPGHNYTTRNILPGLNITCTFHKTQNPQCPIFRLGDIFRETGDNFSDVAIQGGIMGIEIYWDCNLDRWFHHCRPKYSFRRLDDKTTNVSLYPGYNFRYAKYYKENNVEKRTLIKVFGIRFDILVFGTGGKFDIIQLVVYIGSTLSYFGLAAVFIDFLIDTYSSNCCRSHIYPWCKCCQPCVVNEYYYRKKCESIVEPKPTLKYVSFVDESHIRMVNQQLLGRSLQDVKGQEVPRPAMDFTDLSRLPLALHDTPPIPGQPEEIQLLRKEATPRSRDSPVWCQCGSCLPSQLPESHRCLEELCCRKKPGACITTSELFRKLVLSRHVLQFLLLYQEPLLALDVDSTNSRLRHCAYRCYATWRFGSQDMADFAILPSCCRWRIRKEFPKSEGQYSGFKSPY
Nature of the assay: IL-1β release assay in differentiated THP-1 cells stimulated with BzATP (Example 9). The assay is classed as cell-based. The note with it: BzATP 250 uM; for inhibition at 0.1 µM / inhibition at 0.3 µM: differentiated THP-1 cells, read-out: IL-1β % Inhib. @ 0.3 or 0.1 uM. As to the method:
THP-1 cells (ATCC Cat #285-IF-100) are plated in 96 well plates at a concentration of 200,000 cells per well and allowed to differentiate in RPMI-1640 media (ATCC Cat #30-2001) containing 10% FBS, 100 IU/mL penicillin, 100 ug/mL streptomycin, 100 ng/mL LPS and 100 ng/mL IFN-γ for 16 hours. Following differentiation, the cells are treated for an additional 2 hours in RPMI-1640 media containing 100 IU/mL penicillin, 100 ug/mL streptomycin and fresh LPS at 100 ng/mL. The cells are then pretreated for 30 minutes with the compound of interest at the appropriate concentration in RPMI media containing 100 IU/mL penicillin, 100 ug/mL streptomycin. Following the pretreatment 2′,3′-O-(4-benzoylbenzoyl)-adenosine 5′-triphosphate (Sigma Aldrich Cat #B6396) is added to a final concentration of 250 uM and the cells are incubated for an additional 45 minutes. 30 uL of cell supernatant is then collected and IL-1β levels determined via ELISA (R&D systems Cat. #HSLB50) according to manufacturer's recommendations using the Tecan Safire plate reader. Background adjusted IL-1β levels of drug treated and non-treated cells are used to calculate the percent inhibition.
The compounds set forth in Table 1 were tested for activity in a cellular model as described herein. Specifically, cells were pretreated with differing amounts of the compound under test and released IL-1β determined as in Example 9, above. Measurements were made and IC50 values, presented in Table 2, below, were determined by fitting the data to a four parameter logistic equation using GraphPad Prism software (GraphPad Software, Inc). The equation may be expressed by the following formula:
Y=Bottom+(Top−Bottom)/(1+10̂((Log EC50−X)*HillSlope))
Where X is the logarithm of concentration, Y is the response and Y starts at Bottom and goes to Top with a sigmoid shape.

The IC50 is the concentration needed to halve the response being measured.

Read-outs that look alike come from different tables or passages of the source.

Turning to `Cc1ccc(C(=O)Nc2cccc3c(=O)n(CC4(O)CCCCC4)ccc23)c(C)c1` [Compound 86], the inhibition at 0.1 µM (0.1 μM compound (symbols *)) is 0 to 25%.

On to `CC(C)(O)Cn1ccc2c(NC(=O)c3cccc4ccccc34)cccc2c1=O` [Compound 204], for which, where the note is “0.1 μM compound, "*" symbols”, the inhibition at 0.1 µM was in the range of 0 to 25%. As to `C[C@H](C(N)=O)n1ccc2c(NC(=O)Cc3ccc(Cl)cc3F)c(Cl)ccc2c1=O` [Compound 343], the inhibition at 0.3 µM (0.3 μM compound, "+" symbols) lay within 26 to 50%. As to `CC(C)C[C@H](CO)n1ccc2c(NC(=O)[C@@H](C)c3ccc(Cl)cc3)cccc2c1=O` [Compound 271], the inhibition at 0.3 µM (0.3 μM compound, "+" symbols) was above 76%. Take `COc1ccccc1CC(=O)Nc1cccc2c(=O)n(CC3(O)CCCCC3)ccc12` [Compound 29]: the inhibition at 0.3 µM (0.3 μM compound (symbols +)) was 26 to 50%. Regarding `CC(C(=O)Nc1cccc2c(=O)n([C@H](C)C(N)=O)ccc12)c1ccc(F)cc1` (some centres unmarked) [Compound 299], the inhibition at 0.3 µM (0.3 μM compound, "+" symbols) was above 76%. In the case of `CC(C)(O)Cn1ccc2c(NC(=O)c3ccc4c(c3)OCCCO4)cccc2c1=O` [Compound 223], the inhibition at 0.1 µM (0.1 μM compound, "*" symbols) fell in the range of 0 to 25%. Consider `O=C(Cc1cccc(C(F)(F)F)c1F)Nc1c(NCCO)ccc2c(=O)n(CCO)ccc12` [Compound 385, 2-(2-Fluoro-3-trifluoromethyl-phenyl)-N-[2-(2-hydroxy-ethyl)-6-(2-hydroxy-ethylamino)-1-oxo-1,2-dihydro-isoquinolin-5-yl]-acetamide], for which the inhibition at 0.3 µM (0.3 μM compound, "+" symbols) was 0 to 25%.

Turning to `O=C(Cc1ccc(Cl)c(Cl)c1)Nc1cccc2c(=O)n(C[C@H]3CCCN3)ccc12` [Compound 245], the inhibition at 0.3 µM (0.3 μM compound, "+" symbols) is above 76%. Take `C[C@H](C(=O)Nc1cccc2c(=O)n([C@H](C)CO)ccc12)c1ccc(Cl)c(Cl)c1` [Compound 321]: the inhibition at 0.3 µM (0.3 μM compound, "+" symbols) was above 76%.

Regarding `C[C@@H](C(N)=O)n1ccc2c(NC(=O)Cc3cccc(C(F)(F)F)c3F)cccc2c1=O` [Compound 349], the inhibition at 0.3 µM (0.3 μM compound, "+" symbols) was above 76%. `COc1ccc(OC)c(CC(=O)Nc2cccc3c(=O)n(CC(C)O)ccc23)c1` (centres unmarked) [Compound 156]: where the note is “0.1 μM compound (symbols *)”, the inhibition at 0.1 µM lay in the range of 26 to 50%. On to `CCOc1ccccc1CC(=O)Nc1cccc2c(=O)n(CC3(O)CCCCC3)ccc12` [Compound 50], for which, for the setting “0.3 μM compound (symbols +)”, the inhibition at 0.3 µM fell in the range of 0 to 25%. For `CNC(=O)[C@@H](C(C)C)n1ccc2c(NC(=O)[C@@H](C)c3ccc(Cl)cc3)cccc2c1=O` [Compound 276, (R)-2-{5-[(S)-2-(4-Chloro-phenyl)-propionylamino]-1-oxo-1H-isoquinolin-2-yl}-3,N-dimethyl-butyramide], where the note is “0.3 μM compound, "+" symbols”, the inhibition at 0.3 µM was above 76%. Take `Cc1c(Cl)cccc1C(=O)Nc1cccc2c(=O)n(C(C)CO)ccc12` (centres unmarked) [Compound 118]: for the setting “0.1 μM compound (symbols *)”, the inhibition at 0.1 µM fell in the range of 26 to 50%.

For the compound `C[C@H](C(N)=O)n1ccc2c(NC(=O)c3cccc4ncccc34)cccc2c1=O` [Compound 272], the inhibition at 0.3 µM (0.3 μM compound, "+" symbols) fell in the range of 0 to 25%. On the same count and under the same terms, as for `C[C@H](CO)n1ccc2c(NC(=O)Cc3ccc(Cl)cc3F)cccc2c1=O` [Compound 327], the figure is above 76%. Regarding `O=C(Nc1cccc2c(=O)n(CCO)ccc12)c1ccccc1` [Compound 1], for the setting “0.3 μM compound (symbols +)”, the inhibition at 0.3 µM lay in the range of 0 to 25%. For the compound `Cc1cccc(C(=O)Nc2cccc3c(=O)n(CC4(O)CCCCC4)ccc23)c1C` [Compound 85], the inhibition at 0.1 µM (0.1 μM compound (symbols *)) is 0 to 25%. `COc1ccc(C(=O)Nc2cccc3c(=O)n(C(C)CO)ccc23)cc1Cl` (centres unmarked) [Compound 92]: the inhibition at 0.1 µM (0.1 μM compound (symbols *)) was in the range of 0 to 25%. Still for that read-out and setting: as for `Cc1ccccc1C(=O)Nc1cccc2c(=O)n(CC(C)O)ccc12` (centres unmarked) [Compound 139], the figure is 26 to 50%; as for `O=C(Nc1cccc2c(=O)n(CC3(O)CCCCC3)ccc12)c1ccc(-c2ccccc2)o1` [Compound 9], 0 to 25%.

As to `CC(O)Cn1ccc2c(NC(=O)c3ccc(Cl)cc3Cl)cccc2c1=O` (centres unmarked) [Compound 137], under “0.1 μM compound (symbols *)”, the inhibition at 0.1 µM lay in the range of 0 to 25%. As to `CC(C)(C)c1ccc(C(=O)Nc2cccc3c(=O)n(CC4(O)CCCCC4)ccc23)cc1` [Compound 23], the inhibition at 0.1 µM (0.1 μM compound (symbols *)) was in the range of 0 to 25%.

Consider `C[C@H](C(N)=O)n1ccc2c(NC(=O)Cc3ccc(C(F)(F)F)cc3F)cccc2c1=O` [Compound 296], for which, for the setting “0.3 μM compound, "+" symbols”, the inhibition at 0.3 µM was above 76%. Turning to `CC(C)(CO)n1ccc2c(NC(=O)Cc3ccc(C(F)(F)F)cc3C(F)(F)F)cccc2c1=O` [Compound 366], the inhibition at 0.3 µM (0.3 μM compound, "+" symbols) is 0 to 25%. For `Cc1cc(C)c(CC(=O)Nc2cccc3c(=O)n(CC(C)(C)O)ccc23)c(C)c1` [Compound 190], the inhibition at 0.1 µM (0.1 μM compound (symbols *)) fell in the range of 0 to 25%. As for `Cc1cccc(C(=O)Nc2cccc3c(=O)n(CC(C)O)ccc23)c1` (centres unmarked) [Compound 144], for the setting “0.1 μM compound (symbols *)”, the inhibition at 0.1 µM was in the range of 0 to 25%. `CCOc1cccc(C(=O)Nc2cccc3c(=O)n(CC(C)(C)O)ccc23)c1` [Compound 193]: the inhibition at 0.1 µM (0.1 μM compound (symbols *)) fell in the range of 0 to 25%.

In the case of `COc1cccc(CCC(=O)Nc2cccc3c(=O)n(CC(C)(C)O)ccc23)c1` [Compound 189], the inhibition at 0.1 µM (0.1 μM compound (symbols *)) lay within 0 to 25%. Regarding `CCOc1ccc(C(=O)Nc2cccc3c(=O)n(CC4(O)CCCCC4)ccc23)cc1` [Compound 21], for the setting “0.1 μM compound (symbols *)”, the inhibition at 0.1 µM lay within 0 to 25%.

Regarding `CC(CO)n1ccc2c(NC(=O)c3ccc(-c4ccccc4)cc3)cccc2c1=O` (centres unmarked) [Compound 102], the inhibition at 0.1 µM (0.1 μM compound (symbols *)) lay in the range of 0 to 25%. In the case of `C[C@@H](CO)n1ccc2c(NC(=O)Cc3ccc(Cl)c(F)c3)cccc2c1=O` [Compound 334], the inhibition at 0.3 µM (0.3 μM compound, "+" symbols) lay in the range of 51 to 75%. Take `CC(C(=O)Nc1cccc2c(=O)n(C[C@@H]3CCCN3)ccc12)c1ccc(Cl)cc1` (some centres unmarked) [Compound 246]: the inhibition at 0.3 µM (0.3 μM compound, "+" symbols) lay within 51 to 75%.

Regarding `COc1ccc2c(=O)n([C@H](C)C(N)=O)ccc2c1NC(=O)Cc1ccc(C(F)(F)F)cc1` [Compound 344, (R)-2-{6-Methoxy-1-oxo-5-[2-(4-trifluoromethyl-phenyl)-acetylamino]-1H-isoquinolin-2-yl}-propionamide], the inhibition at 0.3 µM (0.3 μM compound, "+" symbols) was above 76%. Still for that read-out and setting: as for `CC(C(=O)Nc1cccc2c(=O)n(CCO)ccc12)c1ccc(Cl)cc1` (centres unmarked) [Compound 244], the figure is 26 to 50%. For `CC(C)(O)Cn1ccc2c(NC(=O)c3ccc(Cl)cc3Cl)cccc2c1=O` [Compound 198], under “0.1 μM compound, "*" symbols”, the inhibition at 0.1 µM fell in the range of 0 to 25%. For the compound `CC(O)Cn1ccc2c(NC(=O)C(C)c3ccccc3)cccc2c1=O` (centres unmarked) [Compound 148], for the setting “0.1 μM compound (symbols *)”, the inhibition at 0.1 µM fell in the range of 0 to 25%. On the same count and under the same terms, as for `Cc1cc(C)c(CC(=O)Nc2cccc3c(=O)n(CC(C)O)ccc23)c(C)c1` (centres unmarked) [Compound 129], the figure is 0 to 25%. The same measure, in the same setting: as for `Cc1ccc(C)c(C(=O)Nc2cccc3c(=O)n(C(C)CO)ccc23)c1` (centres unmarked) [Compound 100], the figure is 0 to 25%. Regarding `O=C(Cc1ccc(Cl)c(C(F)(F)F)c1)Nc1cccc2c(=O)n(CC3CCNCC3)ccc12` [Compound 257, 2-(4-Chloro-3-trifluoromethyl-phenyl)-N-(1-oxo-2-piperidin-4-ylmethyl-1,2-dihydro-isoquinolin-5-yl)-acetamide], under “0.3 μM compound, "+" symbols”, the inhibition at 0.3 µM is above 76%. As to `Cc1ccc(C)c(C(=O)Nc2cccc3c(=O)n(CC(C)O)ccc23)c1` (centres unmarked) [Compound 142], the inhibition at 0.1 µM (0.1 μM compound (symbols *)) was 0 to 25%. With `Cc1cccc(C(=O)Nc2cccc3c(=O)n(CC4(O)CCCCC4)ccc23)c1Cl` [Compound 55], the inhibition at 0.3 µM (0.3 μM compound (symbols +)) lay in the range of 0 to 25%. For the compound `COc1ccc(CC(=O)Nc2cccc3c(=O)n(CC4(O)CCCCC4)ccc23)cc1` [Compound 33], the inhibition at 0.3 µM (0.3 μM compound (symbols +)) fell in the range of 0 to 25%. Take `O=C(Nc1cccc2c(=O)n(CCO)ccc12)C1(c2ccc(Cl)cc2)CCCC1` [Compound 79]: the inhibition at 0.3 µM (0.3 μM compound (symbols +)) lay within 0 to 25%. Moreover, the IC50 (THP-1 cells, IL-1β by ELISA) was above 1000 nM.

Regarding `Cc1ccccc1CC(=O)Nc1cccc2c(=O)n(CC3(O)CCCCC3)ccc12` [Compound 89], the inhibition at 0.1 µM (0.1 μM compound (symbols *)) fell in the range of 0 to 25%.
